Assay results published in patent publication US20240246941A1, “SUBSTITUTED 4-(3-AMINOPROP-1-YL)AMINOQUINOLINE ANALOGS AS MODULATORS OF MELANOMA-ASSOCIATED ANTIGEN 11 UBIQUITIN LIGASE” (ST. JUDE CHILDREN'S RESEARCH HOSPITAL, INC., priority 2020, published 2024).

Each compound was assayed against MAGE-A11:PCF11 (Homo sapiens (Human), UniProt P43364) (assay: TR-FRET single point screening at 15 μM). Conditions: single point TR-FRET screening at 15 μM against MAGE-A11:PCF11.
Chain of MAGE-A11:PCF11 (P43364 218-429): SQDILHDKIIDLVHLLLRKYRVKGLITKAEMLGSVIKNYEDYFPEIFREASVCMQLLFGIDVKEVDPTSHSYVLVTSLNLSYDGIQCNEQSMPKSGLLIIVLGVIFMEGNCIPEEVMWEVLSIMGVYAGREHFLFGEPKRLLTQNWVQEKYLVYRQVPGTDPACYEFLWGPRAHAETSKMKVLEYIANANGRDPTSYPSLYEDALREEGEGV
Format: binding
Set-up: unit not given here
Method in brief: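 Competition TR-FRET: compounds at final 15 μM mixed with 200 nM FAM-PCF11_4, 5 nM GST-MAGEA11 and 5 nM Tb-anti-GST in Tris pH 7.5/MgCl2/BSA/DTT buffer, room temperature, 90 min. Emission ratio 520/490 nm (340 nm excitation) expressed as % inhibition relative to positive and negative controls.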
Work on `CC(C)CN(CCCCNc1ccnc2cc(Cl)ccc12)Cc1ccccc1` [SJ000357470] yielded a TR-FRET signal of 25.47. Work on `Clc1ccc2c(NC3CCN(CC4CC4)CC3)ccnc2c1` [SJ000357481] yielded a TR-FRET signal of 3.973. For `Clc1ccc2c(NCCCCN(Cc3ccccc3)CC3CC3)ccnc2c1` [SJ000357485], the TR-FRET signal was 18.34. `COc1ccc(F)cc1CN1CCC(Nc2ccnc3cc(Cl)ccc23)CC1` [SJ000357493] gave a TR-FRET signal of 6.153. Work on `COc1ccc(F)cc1CN(CCCCNc1ccnc2cc(Cl)ccc12)Cc1ccccc1` [SJ000357496] yielded a TR-FRET signal of 20.78. `COc1cccc(F)c1CN1CCC(Nc2ccnc3cc(Cl)ccc23)CC1` [SJ000357498] showed a TR-FRET signal of 10.5. `COc1cccc(F)c1CN(CCCCNc1ccnc2cc(Cl)ccc12)Cc1ccccc1` [SJ000357501] was tested, and the TR-FRET signal was 5.094. `Oc1c(F)cc(F)cc1CN(CCCCNc1ccnc2cc(Cl)ccc12)Cc1ccccc1` [SJ000357506] gave a TR-FRET signal of 30.65. With `Clc1ccc2c(NC3CCN(Cc4ccc(Br)o4)CC3)ccnc2c1` [SJ000357512] the TR-FRET signal was −4.381. `Clc1ccc2c(NC3CCN(Cc4ccccc4)CC3)ccnc2c1` [SJ000357524] was tested, and the TR-FRET signal was 6.554. In the case of `COc1cccc(CN2CCC(Nc3ccnc4cc(Cl)ccc34)CC2)c1O` [SJ000357525], the TR-FRET signal is reported as 9.995. With `COc1ccc(O)c(CN2CCC(Nc3ccnc4cc(Cl)ccc34)CC2)c1` [SJ000357527] the TR-FRET signal was 7.779. `Oc1ccccc1CN1CCC(Nc2ccnc3cc(Cl)ccc23)CC1` [SJ000357529] gave a TR-FRET signal of 22.15. Compound `CC(C)(C)CCN(CCCCNc1ccnc2cc(Cl)ccc12)Cc1ccccc1` [SJ000357537] has a TR-FRET signal of 34.54. `CCCCN(CCCCNc1ccnc2cc(Cl)ccc12)Cc1ccccc1` [SJ000357538] was tested, and the TR-FRET signal was 27.64. `Clc1ccc2c(NCCCCN(CCOCc3ccccc3)Cc3ccccc3)ccnc2c1` [SJ000357543] gave a TR-FRET signal of −15.92. For `COc1ccc2nc3cc(Cl)ccc3c(NCCCNCc3ccc4c(c3)OCO4)c2c1` [SJ000361085], the TR-FRET signal was −363.3. `COc1ccc2nc3cc(Cl)ccc3c(NCCCNCc3ccccc3)c2c1` [SJ000361086] showed a TR-FRET signal of −432.4. `COc1ccc2nc3cc(Cl)ccc3c(NCCCNCC3CC3)c2c1` [SJ000361087] gave a TR-FRET signal of −502.4. `COc1ccc2nc3cc(Cl)ccc3c(NCCCNCc3cccs3)c2c1` [SJ000361088] was tested, and the TR-FRET signal was −453.5. `COc1ccc2nc3cc(Cl)ccc3c(NCCCNCc3ccc(C)o3)c2c1` [SJ000361089] showed a TR-FRET signal of −229. `COc1ccc2nc3cc(Cl)ccc3c(NCCCNCC3CCCCC3)c2c1` [SJ000361090] gave a TR-FRET signal of −411.2. `COc1ccc2nc3cc(Cl)ccc3c(NCCCNCc3cc(F)ccc3F)c2c1` [SJ000361091] gave a TR-FRET signal of −327.2. `CCC(CC)CNCCCNc1c2ccc(Cl)cc2nc2ccc(OC)cc12` [SJ000361092] was tested, and the TR-FRET signal was −427.4. `CCC(C)CNCCCNc1c2ccc(Cl)cc2nc2ccc(OC)cc12` (stereo not shown) [SJ000361093] gave a TR-FRET signal of −451.5. With `COc1ccc2nc3cc(Cl)ccc3c(NCCCNCc3sccc3C)c2c1` [SJ000361094] the TR-FRET signal was −321.3. `COc1ccc2nc3cc(Cl)ccc3c(NCCCNCc3ccccc3C(F)(F)F)c2c1` [SJ000361095] was tested, and the TR-FRET signal was −169.5. With `CCCNCCCNc1c2ccc(Cl)cc2nc2ccc(OC)cc12` [SJ000361096] the TR-FRET signal was −498.5. With `CCCCCCNCCCNc1c2ccc(Cl)cc2nc2ccc(OC)cc12` [SJ000361097] the TR-FRET signal was −281.7. `COc1ccc2nc3cc(Cl)ccc3c(NCCCNCCC(C)SC)c2c1` (stereo not shown) [SJ000361098] was tested, and the TR-FRET signal was −514.5.

Same assay, conditions: single point TR-FRET screening of quinoline compounds against MAGE-A11:PCF11; 15 μM
Work on `CCCN(CCCNc1ccnc2cc(Cl)ccc12)Cc1ccc[nH]1` [SJ000357445] yielded a TR-FRET signal of 10.34. With `CCCN(CCCNc1ccnc2cc(Cl)ccc12)Cc1cccnc1` [SJ000357446] the TR-FRET signal was 7.809. For `CCCN(CCCNc1ccnc2cc(Cl)ccc12)Cc1ccncc1` [SJ000357449], the TR-FRET signal was 9.295. In the case of `CCCN(CCCNc1ccnc2cc(Cl)ccc12)Cc1nccs1` [SJ000357454], the TR-FRET signal is reported as 11.96. `CCCN(CCCNc1ccnc2cc(Cl)ccc12)Cc1ccco1` [SJ000357458] gave a TR-FRET signal of 3.483. For `Clc1ccc2c(NCCCN(Cc3ccccc3)Cc3ccc(Br)s3)ccnc2c1` [SJ000357461], the TR-FRET signal was 27.5. Work on `COc1ccc(O)c(CN(CCCNc2ccnc3cc(Cl)ccc23)Cc2ccccc2)c1` [SJ000357463] yielded a TR-FRET signal of 14.17. `COc1cccc(CN(CCCNc2ccnc3cc(Cl)ccc23)Cc2ccccc2)c1O` [SJ000357465] showed a TR-FRET signal of 13.17. In the case of `CC(C)CN(CCCNc1ccnc2cc(Cl)ccc12)Cc1ccccc1` [SJ000357468], the TR-FRET signal is reported as 18.75. `Clc1ccc2c(NCCCN(Cc3ccccc3)CC3CC3)ccnc2c1` [SJ000357483] showed a TR-FRET signal of 21.06. `CCCN(CCCNc1ccnc2cc(Cl)ccc12)Cc1cc(F)ccc1OC` [SJ000357494] showed a TR-FRET signal of 17.08. Compound `COc1ccc(F)cc1CN(CCCNc1ccnc2cc(Cl)ccc12)Cc1ccccc1` [SJ000357495] has a TR-FRET signal of 6.683. For `CCCN(CCCNc1ccnc2cc(Cl)ccc12)Cc1c(F)cccc1OC` [SJ000357499], the TR-FRET signal was 19.4. `COc1cccc(F)c1CN(CCCNc1ccnc2cc(Cl)ccc12)Cc1ccccc1` [SJ000357500] gave a TR-FRET signal of −2.857. Work on `Oc1c(F)cc(F)cc1CN(CCCNc1ccnc2cc(Cl)ccc12)Cc1ccccc1` [SJ000357504] yielded a TR-FRET signal of 27.64. In the case of `CCCN(CCCNc1ccnc2cc(Cl)ccc12)CC(C)C` [SJ000357568], the TR-FRET signal is reported as 11.45. `CCCN(CCCNc1ccnc2cc(Cl)ccc12)CCC(C)(C)C` [SJ000357570] showed a TR-FRET signal of 12.11. Compound `CCCCN(CCC)CCCNc1ccnc2cc(Cl)ccc12` [SJ000357571] has a TR-FRET signal of 12.78. For `CCCN(CCCNc1ccnc2cc(Cl)ccc12)CCC(C)c1ccccc1` (stereo not shown) [SJ000357573], the TR-FRET signal was 24.98. For `CCCN(CCCNc1ccnc2cc(Cl)ccc12)CCc1ccccc1` [SJ000357574], the TR-FRET signal was 4.884. `CCCN(CCCNc1ccnc2cc(Cl)ccc12)CCCSC` [SJ000357576] showed a TR-FRET signal of 7.824. `CCCN(CCCNc1ccnc2cc(Cl)ccc12)CCOCc1ccccc1` [SJ000357577] gave a TR-FRET signal of −13.18. Work on `CC(C)(C)CCN(CCCNc1ccnc2cc(Cl)ccc12)Cc1ccccc1` [SJ000357578] yielded a TR-FRET signal of 25.69. `CCCCN(CCCNc1ccnc2cc(Cl)ccc12)Cc1ccccc1` [SJ000357579] was tested, and the TR-FRET signal was 19.31. With `Clc1ccc2c(NCCCN(CCc3ccccc3)Cc3ccccc3)ccnc2c1` [SJ000357580] the TR-FRET signal was 14.41. `Clc1ccc2c(NCCCN(CCOCc3ccccc3)Cc3ccccc3)ccnc2c1` [SJ000357583] gave a TR-FRET signal of 13.24. For `CCCN(CCCNc1ccnc2cc(Cl)ccc12)Cc1cccc2c1OCO2` [SJ000357594], the TR-FRET signal was 18.14. Work on `CCCN(CCCNc1ccnc2cc(Cl)ccc12)Cc1ccccc1OC(F)(F)F` [SJ000357595] yielded a TR-FRET signal of −21.87. In the case of `CCCN(CCCNc1ccnc2cc(Cl)ccc12)Cc1cc(F)cc(F)c1O` [SJ000357597], the TR-FRET signal is reported as 15.96. `Clc1ccc2c(NCCCN(Cc3ccccc3)Cc3cccc4c3OCO4)ccnc2c1` [SJ000357598] showed a TR-FRET signal of 3.49. For `FC(F)(F)Oc1ccccc1CN(CCCNc1ccnc2cc(Cl)ccc12)Cc1ccccc1` [SJ000357599], the TR-FRET signal was 19.76. `COc1ccc2nc3cc(Cl)ccc3c(NCCCNCc3ccc[nH]3)c2c1` [SJ000361084] was tested, and the TR-FRET signal was 0.9854. Compound `COc1ccc2nc3cc(Cl)ccc3c(NCCCNCc3c4ccccc4cc4ccccc34)c2c1` [SJ000361099] has a TR-FRET signal of −3.728. Work on `Clc1ccc2c(NCCCNCC3CC3)ccnc2c1` [SJ000361101] yielded a TR-FRET signal of 11.47. `Clc1ccc2c(NCCCNCC3CCCCC3)ccnc2c1` [SJ000361102] showed a TR-FRET signal of 15.63. Compound `CCC(CC)CNCCCNc1ccnc2cc(Cl)ccc12` [SJ000361103] has a TR-FRET signal of 16.55. Work on `CCC(C)CNCCCNc1ccnc2cc(Cl)ccc12` (stereo not shown) [SJ000361104] yielded a TR-FRET signal of 9.822. `FC(F)(F)c1ccc2c(NCCCNCc3ccc[nH]3)ccnc2c1` [SJ000361105] gave a TR-FRET signal of 41.69. `FC(F)(F)c1ccc2c(NCCCNCC3CC3)ccnc2c1` [SJ000361108] showed a TR-FRET signal of 22.81. Work on `Cc1ccc(CNCCCNc2ccnc3cc(C(F)(F)F)ccc23)o1` [SJ000361109] yielded a TR-FRET signal of 14.45. Work on `FC(F)(F)c1ccc2c(NCCCNCC3CCCCC3)ccnc2c1` [SJ000361110] yielded a TR-FRET signal of 27.12. `CCC(CC)CNCCCNc1ccnc2cc(C(F)(F)F)ccc12` [SJ000361111] gave a TR-FRET signal of 24.33. `CCC(C)CNCCCNc1ccnc2cc(C(F)(F)F)ccc12` (stereo not shown) [SJ000361112] gave a TR-FRET signal of 18.47. For `FC(F)(F)c1ccc2c(NCCCNCc3ccco3)ccnc2c1` [SJ000361113], the TR-FRET signal was 18.05. `CCCNCCCNc1ccnc2cc(Cl)ccc12` [SJ000361119] was tested, and the TR-FRET signal was 9.785. Work on `CCCCCCNCCCNc1ccnc2cc(Cl)ccc12` [SJ000361120] yielded a TR-FRET signal of 22.25. `CSC(C)CCNCCCNc1ccnc2cc(Cl)ccc12` (stereo not shown) [SJ000361121] was tested, and the TR-FRET signal was 13.5. `CCCNCCCNc1ccnc2cc(C(F)(F)F)ccc12` [SJ000361123] was tested, and the TR-FRET signal was 12.82. `CCCCCCNCCCNc1ccnc2cc(C(F)(F)F)ccc12` [SJ000361124] was tested, and the TR-FRET signal was 31.61. `CSC(C)CCNCCCNc1ccnc2cc(C(F)(F)F)ccc12` (stereo not shown) [SJ000361125] showed a TR-FRET signal of 24.46. With `Clc1ccc2c(NCCCN(Cc3ccccc3)Cc3ccccc3)ccnc2c1` [SJ000361166] the TR-FRET signal was 14.76. `Oc1ccccc1CN(CCCNc1ccnc2cc(Cl)ccc12)Cc1ccccc1` [SJ000361167] showed a TR-FRET signal of 19.27. `FC(F)(F)c1ccccc1CN(CCCNc1ccnc2cc(Cl)ccc12)Cc1ccccc1` [SJ000361168] showed a TR-FRET signal of 2.509. Compound `Cc1cc(C)c(CN(CCCNc2ccnc3cc(Cl)ccc23)Cc2ccccc2)c(C)c1` [SJ000361169] has a TR-FRET signal of 31.19. `Clc1ccc2c(NCCCN(Cc3ccccc3)Cc3ccoc3)ccnc2c1` [SJ000361170] was tested, and the TR-FRET signal was 12.84.
